{"source": "patent US10729130B2", "about": "“Nematicidal compositions and methods of using them” (Eden Research plc, priority 2004, dated 2020)", "assay_type_in_all_cases": "physicochemical", "key": {"[1]": {"assay": "Maximal citral and L-carvone loading in Baker's yeast particles (free terpene score)", "design": "key to Free Terpene: +: “free terpene” refers to the visible presence of terpene in the centrifuged reaction mixture; −: The absence of free terpene indicates complete absorption of the terpene by the particles", "settings": "for Free Terpene: 500 μl 20 mg/ml YP, overnight room temperature", "method": "Samples were centrifuged at 14,000×g for 10 minutes and the appearance of free terpene floating on the aqueous layer was scored. The expression “free terpene” refers to the visible presence of terpene in the centrifuged reaction mixture. The absence of free terpene indicates complete absorption of the terpene by the particles. The highest volume of terpene absorbed by the particles, as evidenced by the absence of free terpene, was recorded as the maximal volume of absorbed terpene emulsion."}, "[2]": {"assay": "Terpene loading with surfactant, Tween-80:terpene ratio (free terpene score)", "design": "key: Sl = slight", "settings": "L-carvone emulsion 150 μl, 250 mg/ml YP", "method": "Samples were centrifuged at 14,000×g for 10 minutes and the appearance of free terpene floating on the aqueous layer was scored. The expression “free terpene” refers to the visible presence of terpene in the centrifuged reaction mixture. The absence of free terpene indicates complete absorption and encapsulation of the terpene by the YP. The highest volume of terpene absorbed by the YP, as evidenced by the absence of free terpene, was recorded as the maximal volume of absorbed terpene emulsion."}, "[3]": {"assay": "Kinetics of terpene loading into various particles at room temperature or 37° C.", "design": "key: +: “free terpene” refers to the visible presence of terpene in the centrifuged reaction mixture; −: The absence of free terpene indicates complete absorption of the terpene by the particles", "method": "1% Tween-80 solution was prepared by sonicating 1 ml 10% Tween-80 in 10 ml water. • Baker's YP was prepared by mixing 5 g of bakers YP in 20 ml 1% Tween-80. • Nutrex™ YGP suspension was prepared by mixing 2 g Nutrex™ YGP in 20 ml 1% Tween-80. • SAF Mannan™ suspension was prepared by mixing 2 g SAF Mannan™ in 20 ml 1% Tween-80.\nThe reactions were incubated for 1, 3, 6, 9 and 24 hours at room temperature or 37° C. After incubation samples were centrifuged at 14,000×g for 10 minutes and the appearance of free terpene floating on the aqueous layer was scored. The highest volume of terpene absorbed by the particles as evidenced by the absence of free terpene was recorded as the volume of absorbed terpene emulsion. Colour of the encapsulated pellet was scored at 24 hours."}, "[4]": {"assay": "SAF Mannan loading of different terpenes and terpene mixtures", "design": "key to Free Terpene: +: “free terpene” refers to the visible presence of terpene in the centrifuged reaction mixture; −: The absence of free terpene indicates complete absorption of the terpene by the particles", "settings": "for Free Terpene: SAF Mannan 500 μl (250 mg/ml), overnight, room temperature", "method": "Increasing volumes of terpene emulsion were mixed with 250 mg/ml Baker's YP or 250 mg/ml SAF Mannan™ overnight at room temperature as shown in Tables 27 and 28. Samples were centrifuged at 14,000×g for 10 minutes and the appearance of free terpene floating on the aqueous layer was scored. The highest volume of terpene emulsion absorbed by Baker's YP or SAF Mannan™ as evidenced by the absence of free terpene was recorded as the volume of absorbed terpene emulsion. Colour of encapsulated terpenes in the pellet was recorded.\nPercentage loaded represents a ratio of the amount of terpene loaded to the amount of particle present (weight for weight)."}}, "data": [{"substance": "L-carvone", "values": [{"measurement": "terpene emulsion absorbed and encapsulated per 10 mg of YP", "setting": "[1]; Baker's YP 20 mg/ml", "value": "at least 16.5 μl"}, {"measurement": "Free Terpene", "setting": "[1]; emulsion 0.5 μl, 10% Tween-80 500 μl", "value": "−"}, {"measurement": "Free Terpene", "setting": "[1]; emulsion 1.65 μl, 10% Tween-80 500 μl", "value": "−"}, {"measurement": "Free Terpene", "setting": "[1]; emulsion 5 μl, 10% Tween-80 495 μl", "value": "−"}, {"measurement": "Free Terpene", "setting": "[1]; emulsion 16.5 μl, 10% Tween-80 483.5 μl", "value": "−"}, {"measurement": "Free Terpene", "setting": "[1]; emulsion 50 μl, 10% Tween-80 450 μl", "value": "+"}, {"measurement": "Free Terpene", "setting": "[1]; emulsion 165 μl, 10% Tween-80 335 μl", "value": "+"}, {"measurement": "Free Terpene", "setting": "[1]; emulsion 500 μl, no Tween-80", "value": "+"}, {"measurement": "Free Terpene", "setting": "[2]; 10% Tween-80 0 μl", "value": "Sl"}, {"measurement": "Free Terpene", "setting": "[2]; 10% Tween-80 5 μl", "value": "Sl"}, {"measurement": "Free Terpene", "setting": "[2]; 10% Tween-80 10 μl", "value": "Sl"}, {"measurement": "Free Terpene", "setting": "[2]; 10% Tween-80 33 μl", "value": "Sl"}, {"measurement": "Free Terpene (hr)", "setting": "[3]; 37 ° C., Bakers 250 mg/ml, emulsion 788 μl L-carvone or 525 μl Citral, 1 hr", "value": "+"}, {"measurement": "Free Terpene (hr)", "setting": "[3]; 37 ° C., Bakers 250 mg/ml, emulsion 788 μl L-carvone or 525 μl Citral, 3 hr", "value": "−"}, {"measurement": "Free Terpene (hr)", "setting": "[3]; 37 ° C., Bakers 250 mg/ml, emulsion 788 μl L-carvone or 525 μl Citral, 6 hr", "value": "−"}, {"measurement": "Free Terpene (hr)", "setting": "[3]; 37 ° C., Bakers 250 mg/ml, emulsion 788 μl L-carvone or 525 μl Citral, 9 hr", "value": "−"}, {"measurement": "Free Terpene (hr)", "setting": "[3]; 37 ° C., Bakers 250 mg/ml, emulsion 788 μl L-carvone or 525 μl Citral, 24 hr", "value": "−"}, {"measurement": "Free Terpene (hr)", "setting": "[3]; 37 ° C., Nutrex 100 mg/ml, emulsion 1050 μl L-carvone or 788 μl Citral, 1 hr", "value": "+"}, {"measurement": "Free Terpene (hr)", "setting": "[3]; 37 ° C., Nutrex 100 mg/ml, emulsion 1050 μl L-carvone or 788 μl Citral, 3 hr", "value": "−"}, {"measurement": "Free Terpene (hr)", "setting": "[3]; 37 ° C., Nutrex 100 mg/ml, emulsion 1050 μl L-carvone or 788 μl Citral, 6 hr", "value": "−"}, {"measurement": "Free Terpene (hr)", "setting": "[3]; 37 ° C., Nutrex 100 mg/ml, emulsion 1050 μl L-carvone or 788 μl Citral, 9 hr", "value": "−"}, {"measurement": "Free Terpene (hr)", "setting": "[3]; 37 ° C., Nutrex 100 mg/ml, emulsion 1050 μl L-carvone or 788 μl Citral, 24 hr", "value": "−"}, {"measurement": "Free Terpene (hr)", "setting": "[3]; 37 ° C., SAF 100 mg/ml, emulsion 1050 μl L-carvone or 788 μl Citral, 1 hr", "value": "<+"}, {"measurement": "Free Terpene (hr)", "setting": "[3]; 37 ° C., SAF 100 mg/ml, emulsion 1050 μl L-carvone or 788 μl Citral, 3 hr", "value": "−"}, {"measurement": "Free Terpene (hr)", "setting": "[3]; 37 ° C., SAF 100 mg/ml, emulsion 1050 μl L-carvone or 788 μl Citral, 6 hr", "value": "−"}, {"measurement": "Free Terpene (hr)", "setting": "[3]; 37 ° C., SAF 100 mg/ml, emulsion 1050 μl L-carvone or 788 μl Citral, 9 hr", "value": "−"}, {"measurement": "Free Terpene (hr)", "setting": "[3]; 37 ° C., SAF 100 mg/ml, emulsion 1050 μl L-carvone or 788 μl Citral, 24 hr", "value": "−"}, {"measurement": "Free Terpene (hr)", "setting": "[3]; Rt, Bakers 250 mg/ml, emulsion 788 μl L-carvone or 525 μl Citral, 1 hr", "value": "+"}, {"measurement": "Free Terpene (hr)", "setting": "[3]; Rt, Bakers 250 mg/ml, emulsion 788 μl L-carvone or 525 μl Citral, 3 hr", "value": "−"}, {"measurement": "Free Terpene (hr)", "setting": "[3]; Rt, Bakers 250 mg/ml, emulsion 788 μl L-carvone or 525 μl Citral, 6 hr", "value": "−"}, {"measurement": "Free Terpene (hr)", "setting": "[3]; Rt, Bakers 250 mg/ml, emulsion 788 μl L-carvone or 525 μl Citral, 9 hr", "value": "−"}, {"measurement": "Free Terpene (hr)", "setting": "[3]; Rt, Bakers 250 mg/ml, emulsion 788 μl L-carvone or 525 μl Citral, 24 hr", "value": "−"}, {"measurement": "Free Terpene (hr)", "setting": "[3]; Rt, Nutrex 100 mg/ml, emulsion 1050 μl L-carvone or 788 μl Citral, 1 hr", "value": "+"}, {"measurement": "Free Terpene (hr)", "setting": "[3]; Rt, Nutrex 100 mg/ml, emulsion 1050 μl L-carvone or 788 μl Citral, 3 hr", "value": "−"}, {"measurement": "Free Terpene (hr)", "setting": "[3]; Rt, Nutrex 100 mg/ml, emulsion 1050 μl L-carvone or 788 μl Citral, 6 hr", "value": "−"}, {"measurement": "Free Terpene (hr)", "setting": "[3]; Rt, Nutrex 100 mg/ml, emulsion 1050 μl L-carvone or 788 μl Citral, 9 hr", "value": "−"}, {"measurement": "Free Terpene (hr)", "setting": "[3]; Rt, Nutrex 100 mg/ml, emulsion 1050 μl L-carvone or 788 μl Citral, 24 hr", "value": "−"}, {"measurement": "Free Terpene (hr)", "setting": "[3]; Rt, SAF 100 mg/ml, emulsion 1050 μl L-carvone or 788 μl Citral, 1 hr", "value": "<+"}, {"measurement": "Free Terpene (hr)", "setting": "[3]; Rt, SAF 100 mg/ml, emulsion 1050 μl L-carvone or 788 μl Citral, 3 hr", "value": "−"}, {"measurement": "Free Terpene (hr)", "setting": "[3]; Rt, SAF 100 mg/ml, emulsion 1050 μl L-carvone or 788 μl Citral, 6 hr", "value": "−"}, {"measurement": "Free Terpene (hr)", "setting": "[3]; Rt, SAF 100 mg/ml, emulsion 1050 μl L-carvone or 788 μl Citral, 9 hr", "value": "−"}, {"measurement": "Free Terpene (hr)", "setting": "[3]; Rt, SAF 100 mg/ml, emulsion 1050 μl L-carvone or 788 μl Citral, 24 hr", "value": "−"}, {"measurement": "Free Terpene", "setting": "[4]; terpene emulsion vol 15, 1% Tween-80 485 μl", "value": "−"}, {"measurement": "Free Terpene", "setting": "[4]; terpene emulsion vol 37.5, 1% Tween-80 462.5 μl", "value": "−"}, {"measurement": "Free Terpene", "setting": "[4]; terpene emulsion vol 75, 1% Tween-80 425 μl", "value": "−"}, {"measurement": "Free Terpene", "setting": "[4]; terpene emulsion vol 112.5, 1% Tween-80 387.5 μl", "value": "−"}, {"measurement": "Free Terpene", "setting": "[4]; terpene emulsion vol 450, 1% Tween-80 50 μl", "value": "+"}, {"measurement": "Vol. loaded (maximal terpene loading in SAF Mannan)", "setting": "[4]; approximate maximal loading, volume of terpene emulsion absorbed by SAF Mannan", "value": 112.5, "unit": "µL"}, {"measurement": "% Loaded w/w (maximal terpene loading in SAF Mannan)", "setting": "[4]; ratio of amount of terpene loaded to amount of particle present (weight for weight)", "value": 100, "unit": "% w/w"}]}]}
